The subject of the experiment is mitochondrial oxidative phosphorylation pathway. The experiment is described as follows: Oxygen consumption of NCI-H82 cell, Seahorse XFe metabolic analyzer. It is filed as cell-based, human. To be noted: 2 μM inhibitor, detection within 0.5 h, compared with control group, FIG. 1 (n=3). An excerpt: The oxygen was mainly consumed by mitochondrial oxidative phosphorylation pathway in the cell, thus the determination of oxygen consumption rate (OCR) of mitochondria could directly reflect the activity of mitochondrial oxidative phosphorylation pathway. The oxygen consumption of NCI-H82 cell in the presence or absence of Oligomycin A, Gboxin, S-Gboxin and IACS-010759, mitochondrial oxidative phosphorylation pathway inhibitors, was detected using Seahorse XFe metabolic analyzer in the present Example. NCI-H82 cell (ATCC, No. […] The control group in absence of mitochondrial oxidative phosphorylation pathway inhibitor was set. The detection of cell oxygen consumption was finished within 0.5 h.

Regarding `CCc1n(CC(=O)O[C@@H]2C[C@H](C)CC[C@H]2C(C)C)c2ccccc2[n+]1C.[Cl-]` [Gboxin], the “oxygen consumption of NCI-H82 cells” value was “significantly inhibit”.

The values are drawn from US20230355647A1, “Marker for determining anti-cancer effects of mitochondrial oxidative phosphorylation pathway inhibitor” (NANJING SHIJIANG MEDICINE TECHNOLOGY CO., LTD, priority 2020, published 2023).
